According to ChEMBL document CHEMBL1151104, “Mollinedine, a New Alkaloid from Mollinedia costaricensis” (J Nat Prod, 1988):
Calls of active or inactive are those of the source. The calls are words filed in the database; no cut-off is given here.

Assays:
[1] = species on record: Rattus norvegicus; assay: Inhibition of ouabain-induced myocardial arrhythmias in rat; type: functional, organism-based
[2] = species on record: Cavia porcellus; assay: Inhibition of CaCl2-induced myocardial arrhythmias in guinea pig; type: functional, organism-based

c1cc2cc3c(cc2c(Cc2ccc4c(c2)OCO4)n1)OCO3
Activity [1]: Active | Activity [2]: Active
